For one assay, the system named is SARS-CoV-2. As to the kind of experiment: Anti-viral assay against SARS-CoV-2 in Vero E6 cells (qRT-PCR viral load). It counts as cell-based. Particulars: Ribavirin 2 μM, compared to infected cells only. (Quantitative PCR measures a nucleic acid by following its amplification.)
Assay [1] concerns the target Recombinant human Furin protein (Homo sapiens, UniProt P09958). As to the kind of experiment: Inhibition of proteolytic enzyme (Furin) activity, fluorogenic substrate pGlu-Arg-Thr-Lys-Arg-AMC. It counts as biochemical. Particulars: for inhibition at 6.25 µg/mL: at 6.25 μg/ml; for inhibition at 100 µg/mL: at 100 μg/ml.
[2] abbreviates: read-out: Percentage inhibition of Furin.
[3] abbreviates: read-out: IC50, inhibition of Furin (converted).

Where two headings read alike, the source gives them in different places. Residues, ends and D or L forms follow the SMILES beside them. *: point of attachment. Decanoyl = CCCCCCCCCC(=O)*; CH2Cl = ClC*

Sequence of Recombinant human Furin protein (P09958 108-794): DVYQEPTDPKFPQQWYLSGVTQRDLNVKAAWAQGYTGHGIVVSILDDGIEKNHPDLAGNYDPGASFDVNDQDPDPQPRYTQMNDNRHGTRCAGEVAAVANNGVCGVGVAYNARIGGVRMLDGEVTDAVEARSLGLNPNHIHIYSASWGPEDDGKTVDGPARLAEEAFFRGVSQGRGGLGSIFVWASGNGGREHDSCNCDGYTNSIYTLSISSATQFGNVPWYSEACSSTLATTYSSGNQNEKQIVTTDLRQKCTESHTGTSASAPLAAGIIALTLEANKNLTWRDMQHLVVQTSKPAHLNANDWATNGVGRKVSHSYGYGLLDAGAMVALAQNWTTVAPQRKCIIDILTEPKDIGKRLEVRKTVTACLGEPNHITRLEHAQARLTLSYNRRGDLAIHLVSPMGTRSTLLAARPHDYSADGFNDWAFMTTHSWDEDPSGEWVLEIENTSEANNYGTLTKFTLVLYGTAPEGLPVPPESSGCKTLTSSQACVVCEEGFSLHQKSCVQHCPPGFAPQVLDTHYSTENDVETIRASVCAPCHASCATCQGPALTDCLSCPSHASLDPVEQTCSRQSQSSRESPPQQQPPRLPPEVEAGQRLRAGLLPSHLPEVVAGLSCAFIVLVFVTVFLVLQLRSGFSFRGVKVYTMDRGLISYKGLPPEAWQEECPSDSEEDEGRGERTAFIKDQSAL

`NC(=O)c1ncn([C@@H]2O[C@H](CO)[C@@H](O)[C@H]2O)n1` [Ribavirin]: the “reduction of viral load” value in the assay with SARS-CoV-2 worked out at 83%.
As for `COc1cc(/C=C/C(=O)CC(=O)/C=C/c2ccc(O)c(OC)c2)ccc1O` [Curcumin], in assay [1] (setting [2]), the inhibition (in general, the share of the control response that was lost under treatment) at 6.25 µg/mL was 9.64% and the inhibition at 100 µg/mL worked out at 72.6%. Moreover, the inhibition at 25 µg/mL in assay [1] (at 25 μg/ml, read-out: Percentage inhibition of Furin) turned out to be 64.2%. In assay [1] (setting [3]), the IC50 (in general, the point on the concentration scale where inhibition reaches its midpoint) was 62.6 µM.
Turning to `CCCCCCCCCC(=O)N[C@@H](CCCNC(=N)N)C(=O)N[C@H](C(=O)N[C@@H](CCCCN)C(=O)N[C@@H](CCCNC(=N)N)C(=O)CCl)C(C)C` [Decanoyl RVKR chloromethyl ketone] (Decanoyl-RVKR-CH2Cl), the IC50 in assay [1] (read-out: IC50, inhibition of Furin (positive control)) came out at 0.0134 µM.
On to `O=C(/C=C/c1ccc(O)cc1)CC(=O)/C=C/c1ccc(O)cc1` [BDMC, Bisdemethoxycurcumin], for which, in assay [1] (setting [2]), the inhibition at 6.25 µg/mL was found to be 34% and the inhibition at 100 µg/mL is 78%. In assay [1] (setting [3]), the half-inhibitory concentration (IC50) was 48 µM.

The values above are taken from patent US20220304947A1, “COMPOSITIONS AND METHODS FOR INHIBITING PROTEOLYTIC ACTIVATION OF VIRUSES” (priority 2021, published 2022).
